The subject of one assay is H3R. Also noted: method as in earlier work. The conditions noted are these: ref 19 (Vanover et al.); cited from earlier work.
A further assay relates to H1R. Also noted: method as in earlier work. The conditions noted are these: ref 19 (Vanover et al.); cited from earlier work.
The target in assay [1] is T1, human histamine H3 receptor (Homo sapiens, UniProt Q9Y5N1).
T1 construct: expressed in transfected cells; host or cells: HEK293
Kind of assay: Radioligand displacement assay at histamine H3 receptor ([3H]-Nα-methylhistamine, HEK293 membranes). Format: binding. The conditions noted are these: HEK293 cells stably expressing human H3R, read-out: Ki [CI 95%] (n), H3R. As for the experimental part: Radioligand displacement assays were performed as described previously. HEK293 cells stably expressing the human histamine H3 receptor [37] were grown in Dulbecco’s modified Eagle’s medium, supplemented with 2 mM glutamine, 10 mM HEPES, 10% fetal bovine serum, and 10 μL/mL penicillin/streptomycin in an atmosphere of 5% CO2 at 37 °C. Cells were grown to confluence. The medium was removed, and cells were collected in 15 mL ice-cold phosphate-buffered saline (PBS) (140 mM NaCl, 3 mM KCl, 1.5 mM KH2PO4, 8 mM Na2HPO4, pH 7.4). The cell suspension was centrifuged two times at 3000× g for 10 min with subsequent aspiration in 20 mL of PBS buffer at 4 °C. […]
Competition binding experiments were carried out as follows: membranes (20 μg/well in a final volume of 0.2 mL binding buffer) were incubated with [^3H]-N^α-methylhistamine (2 nM), purchased from PerkinElmer (Waltham, MA, USA), and different concentrations of the respective test ligand. […] Non-specific binding was determined in the presence of the selectively acting histamine H3 receptor inverse agonist/antagonist pitolisant (10 μM). […] Liquid scintillation counting using a PerkinElmer MicroBeta Trilux scintillation counter was used to determine the amount of radioactivity collected on the filter used in the current experiment. […]
For orientation: Loss of bound radioactivity is the signal in a displacement assay; it reports binding, not function.

The next assay addresses T2, hD1R (Homo sapiens, UniProt P21728).
T2 construct: expressed in transfected cells; host or cells: HEK293
Description: Radioligand displacement assay at dopamine D1R ([3H]-SCH23390, HEK293 cells). The format is binding. Conditions: HEK293 cells stably expressing human D1R, read-out: Ki (n), D1R. The procedure:
hD1R affinity was determined according to the procedure of hD3R [43]. Membrane preparations of HEK293 cells stably expressing the hD1R were used with 20 µg/well. [^3H]-SCH23390 was used as radioligand in a concentration of 0.3 nM. Nonspecific binding was determined in the presence of 100 µM fluphenazine. The following steps were performed as describedbefore.

In another assay the target is T3, human D2L (Homo sapiens, UniProt P14416).
T3 construct: expressed in transfected cells; host or cells: HEK293
T3 sequence (P14416 whole entry): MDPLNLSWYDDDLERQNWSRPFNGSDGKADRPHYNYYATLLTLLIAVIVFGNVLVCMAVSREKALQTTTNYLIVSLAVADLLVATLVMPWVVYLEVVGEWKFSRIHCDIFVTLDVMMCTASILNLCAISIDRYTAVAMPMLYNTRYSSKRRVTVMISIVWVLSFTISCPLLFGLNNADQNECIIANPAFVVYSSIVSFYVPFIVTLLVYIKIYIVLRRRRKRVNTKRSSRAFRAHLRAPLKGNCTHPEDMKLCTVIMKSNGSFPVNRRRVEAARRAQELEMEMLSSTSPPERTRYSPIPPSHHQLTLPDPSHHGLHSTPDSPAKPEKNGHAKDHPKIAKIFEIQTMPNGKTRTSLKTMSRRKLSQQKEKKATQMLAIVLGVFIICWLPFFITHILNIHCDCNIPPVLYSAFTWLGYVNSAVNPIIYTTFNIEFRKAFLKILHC
Kind of assay: Radioligand displacement assay at dopamine D2R ([3H]-raclopride, HEK293 cells). Format: binding. The conditions noted are these: HEK293 cells stably expressing human D2R, read-out: Ki ± SD (n), D2R.

Another assay has as its target T4, hD3R (Homo sapiens, UniProt P35462).
T4 construct: expressed in transfected cells; host or cells: CHO-K1
Description: Radioligand displacement assay at dopamine D3R ([3H]-spiperone, CHO-K1 cells). Format: binding. Conditions: CHO-K1 cells stably expressing human D3R, read-out: Ki (n), D3R. As for the experimental part:
To determine the human D3R affinity, compounds and reference substances were tested in a [^3H]-spiperone competition binding assay as described by Bautista-Aguilera et al.. The assay was conducted with membrane preparations of CHO-K1 cells stably expressing hD3R. Membrane fractions (20 μg/well in a final volume of 0.2 mL binding buffer) were incubated with [^3H]-spiperone (0.2 nM) and the test compounds for 120 min at r.t. under shaking. Assays were run in triplicates with at least six appropriate concentrations between 0.1 nM and 100 µM for the test compound. Nonspecific binding was determined in the presence of 10 µM haloperidol.

The next assay addresses T5, hH1R (Homo sapiens, UniProt P35367).
T5 construct: expressed in transfected cells; host or cells: CHO-K1
Description: [3H]-pyrilamine displacement assay at histamine H1R (CHO-K1 cells). Format: binding. Conditions: CHO-K1 cells stably expressing human H1R; [3H]-pyrilamin; read-out: Ki (n), H1R. The procedure:
To determine the human H1R affinity, compounds and reference substances were tested in a [^3H]-pyrilamine displacement assay. The assay was conducted with membrane preparations of CHO-K1 cells stably expressing hH1R. Transfection, cell culture, and membrane preparation were described in detail by Smit and colleagues. For the competition binding assay, membrane fractions (40 μg/well in a final volume of 0.2 mL binding buffer) were incubated with [^3H]-pyrilamine (1 nM) and the test compounds in different concentrations for 120 min at r.t. under shaking. The experimental assays were carried out in triplicate with at least six appropriate concentrations between 0.1 nM and 100 μM for the test compounds. Nonspecific binding was evaluated in the presence of the standard H1R antagonist chlorpheniramine hydrogen maleate at a concentration of 10 µM. The following steps were performed as described before.

The target in a further assay is T6, hH4R (Homo sapiens, UniProt P04899+Q9H3N8).
T6 construct: expressed in transfected cells; host or cells: Sf9 insect cells
T6 sequence (Q9H3N8+P04899 fused): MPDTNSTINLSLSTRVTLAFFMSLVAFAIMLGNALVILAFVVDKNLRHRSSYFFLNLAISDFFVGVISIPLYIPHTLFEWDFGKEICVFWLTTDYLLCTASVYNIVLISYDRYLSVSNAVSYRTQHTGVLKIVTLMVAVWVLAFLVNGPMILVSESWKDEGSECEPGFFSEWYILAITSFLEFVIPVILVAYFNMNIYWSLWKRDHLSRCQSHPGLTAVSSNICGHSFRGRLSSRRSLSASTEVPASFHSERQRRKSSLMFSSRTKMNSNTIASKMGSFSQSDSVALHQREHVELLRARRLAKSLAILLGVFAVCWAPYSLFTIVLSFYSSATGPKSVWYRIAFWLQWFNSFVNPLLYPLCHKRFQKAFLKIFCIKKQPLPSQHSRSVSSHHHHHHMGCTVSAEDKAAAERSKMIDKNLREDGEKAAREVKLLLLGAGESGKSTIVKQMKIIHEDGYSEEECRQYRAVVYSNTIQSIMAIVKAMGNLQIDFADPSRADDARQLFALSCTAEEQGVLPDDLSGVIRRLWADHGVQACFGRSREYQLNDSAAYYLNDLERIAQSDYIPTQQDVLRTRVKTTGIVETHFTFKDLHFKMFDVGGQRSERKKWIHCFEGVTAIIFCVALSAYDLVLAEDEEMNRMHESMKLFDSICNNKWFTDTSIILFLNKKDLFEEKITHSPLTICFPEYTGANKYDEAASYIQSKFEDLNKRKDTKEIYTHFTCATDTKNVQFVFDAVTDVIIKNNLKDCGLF
Kind of assay: [3H]-histamine competition binding assay at histamine H4R (Sf9 membranes). The conditions noted are these: Sf9 cell membranes expressing human H4R with Gαi2 and Gβ1γ2, read-out: Ki (n), H4R. As for the experimental part: To determine the human H4R affinity, compounds and reference structures were examined in a [^3H]-histamine dihydrochloride competition binding assay. Cell culture and membrane preparation of Sf9 cells co-expressing hH4R-Gαi2 fusion protein with Gβ1γ2 was prepared as described by Schneider and co-workers.
The competition binding assay has been performed as described previously by Sander, Kottke, and Schwed from the Stark Lab. Cell membranes were sedimented by 3 min centrifugation at 25 °C and […] and were resuspended in binding buffer. Competition binding experiments were carried out by incubating the membranes (40 µg/0.2 mL binding buffer) and [^3H]-histamine dihydrochloride (10 nM) with test compounds for 60 min at r.t. Assays were run in triplicates with four to seven appropriate concentrations between 0.1 nM and 100 µM for the test compound. Nonspecific binding was determined in the presence of 100 µM JNJ7777120. The following steps were performed as described before.

The source of these data is article PMC9138994 (Biomolecules, 2022).

pKi: −log10 of the molar value. “And” between values parts separate entries of the source, which are not always exact repeats. Equal values may be shown once. Marks after values point to notes of the source that are not given here. Bounds are passed on as bounds.

T1 sequence (Q9Y5N1 whole entry): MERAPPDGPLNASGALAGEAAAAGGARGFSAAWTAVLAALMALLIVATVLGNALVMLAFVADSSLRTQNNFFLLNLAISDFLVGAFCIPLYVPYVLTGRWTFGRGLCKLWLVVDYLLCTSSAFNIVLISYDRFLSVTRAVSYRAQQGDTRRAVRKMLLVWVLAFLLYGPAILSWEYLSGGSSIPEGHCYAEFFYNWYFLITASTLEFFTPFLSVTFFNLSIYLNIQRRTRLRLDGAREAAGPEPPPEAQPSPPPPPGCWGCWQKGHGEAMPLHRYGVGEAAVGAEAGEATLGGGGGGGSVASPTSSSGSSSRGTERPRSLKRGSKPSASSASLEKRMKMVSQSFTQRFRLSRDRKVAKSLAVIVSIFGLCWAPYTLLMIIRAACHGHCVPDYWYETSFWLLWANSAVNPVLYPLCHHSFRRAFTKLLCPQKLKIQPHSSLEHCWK
T4 sequence (P35462 whole entry): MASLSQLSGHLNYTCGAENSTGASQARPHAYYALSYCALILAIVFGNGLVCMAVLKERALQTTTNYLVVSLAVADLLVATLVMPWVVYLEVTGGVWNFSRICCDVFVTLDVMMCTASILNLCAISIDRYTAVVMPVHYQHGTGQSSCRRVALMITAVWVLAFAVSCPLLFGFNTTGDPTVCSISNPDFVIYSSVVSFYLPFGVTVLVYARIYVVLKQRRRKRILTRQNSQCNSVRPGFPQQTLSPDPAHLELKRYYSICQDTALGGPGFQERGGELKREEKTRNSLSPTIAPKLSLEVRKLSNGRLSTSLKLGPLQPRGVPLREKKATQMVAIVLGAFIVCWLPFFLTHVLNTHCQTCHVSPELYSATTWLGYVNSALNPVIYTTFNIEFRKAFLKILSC
T5 sequence (P35367 whole entry): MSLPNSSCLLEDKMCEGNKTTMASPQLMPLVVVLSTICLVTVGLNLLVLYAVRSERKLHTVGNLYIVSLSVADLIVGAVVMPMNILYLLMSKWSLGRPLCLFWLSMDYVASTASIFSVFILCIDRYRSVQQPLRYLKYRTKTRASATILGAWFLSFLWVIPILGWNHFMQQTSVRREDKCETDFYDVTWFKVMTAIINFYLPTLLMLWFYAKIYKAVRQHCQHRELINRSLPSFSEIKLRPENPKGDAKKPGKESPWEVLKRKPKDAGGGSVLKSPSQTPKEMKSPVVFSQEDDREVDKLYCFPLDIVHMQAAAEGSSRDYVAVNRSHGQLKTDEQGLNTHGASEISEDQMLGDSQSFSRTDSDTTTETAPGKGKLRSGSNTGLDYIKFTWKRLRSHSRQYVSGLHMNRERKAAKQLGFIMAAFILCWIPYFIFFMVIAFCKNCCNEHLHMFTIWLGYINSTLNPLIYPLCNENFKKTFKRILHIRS
T2 sequence (P21728 whole entry): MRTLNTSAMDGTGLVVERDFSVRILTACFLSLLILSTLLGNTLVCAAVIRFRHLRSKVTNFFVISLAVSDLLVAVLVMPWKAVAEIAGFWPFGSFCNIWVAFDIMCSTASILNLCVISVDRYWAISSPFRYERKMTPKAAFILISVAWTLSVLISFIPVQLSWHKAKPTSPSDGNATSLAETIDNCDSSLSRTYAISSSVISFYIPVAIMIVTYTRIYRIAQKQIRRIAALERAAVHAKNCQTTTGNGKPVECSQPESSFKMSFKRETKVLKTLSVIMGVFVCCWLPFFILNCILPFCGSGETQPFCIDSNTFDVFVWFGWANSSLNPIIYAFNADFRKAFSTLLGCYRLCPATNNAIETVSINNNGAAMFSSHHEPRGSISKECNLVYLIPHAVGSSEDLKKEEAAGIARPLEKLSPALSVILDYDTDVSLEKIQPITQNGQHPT

Take `CC(C)COc1ccc(CNC(=O)N(Cc2ccc(F)cc2)C2CCN(C)CC2)cc1` [Pimavanserin, reference compound]: the “inhibition at 10 µM, H3R” value with H3R is listed as “inhibition at 10 µM: <50% ^a”. In the assay with H1R, the “inhibition at 10 µM, H1R” value is given as “inhibition at 10 µM: <50% ^a”.
With `CN1CCC(N(Cc2ccc(F)cc2)C(=O)NCc2ccc(OCCCN3CCCCC3)cc2)CC1` [ST-2300, 1-(4-Fluorobenzyl)-1-(1-methylpiperidin-4-yl)-3-{4-[3-(piperidin-1-yl)propoxy]benzyl}urea], the pKi is 7.85 and 7.84 in assay [1]; less than 5.00 on hD1R; less than 5.00 at human D2L; less than 5.00 on hD3R; less than 5.30 on hH1R; less than 6.00 on hH4R.

In general, pKi refers to the Ki on a negative log10 scale, so that one unit is a factor of ten.
